Experimental data taken from patent US9949948B2, “Artemisinin and its derivatives for use in the treatment of trauma haemorrhage and associated conditions” (Queen Mary University of London, priority 2011, dated 2018).

Tested on: rats subjected to regional myocardial ischaemia and reperfusion
Assay: Regional myocardial ischaemia and reperfusion, artesunate and dihydroartemisinin
Format: in vivo, Wistar rats
Procedure: Rats were anaesthetised with thiopentone sodium (Intraval® 120 mg/kg i.p.). Anaesthesia was maintained by supplementary injections of thiopentone sodium as required. The trachea was cannulated and the animals were ventilated with a Harvard ventilator (inspiratory oxygen concentration: 30%; 70 strokes/min, tidal volume: 8-10 ml/kg). Body temperature was maintained at 37±1° C. with the aid of a rectal probe thermometer attached to a homeothermic blanket unit (Harvard Apparatus Ltd., Edenbridge, Kent. U.K.). […] The right jugular vein was then cannulated for the administration of drugs and saline. A para-sternal thoracotomy was then performed, using an Electrosurgery device to cauterize the intercostals arteries before cutting through three ribs. The chest was retracted and pericardium dissected from the heart. The left anterior descending (LAD) coronary artery was isolated and a snare occluder was placed around the LAD. The retractor was then removed and the animal was allowed to stabilise for 15 min.
The occluder was tightened at time 0. After 25 min of LAD-occlusion, the occluder was released to allow reperfusion of the previously ischemic myocardium (2 h). Haemodynamic parameters were continuously monitored. Baseline readings were taken prior to treatment, and, myocardial ischaemia reperfusion (IR) injury. The pressure rate index (PRI), a relative indicator of myocardial oxygen consumption was calculated as a product of the MAP (mmHg) and HR (beats/minute-bpm) and expressed in mm Hg bpm×10^−3.
At the end of the 2 h reperfusion period, the LAD was re-occluded and 1 ml of Evans Blue dye (2% w/v) was injected into the animal, via the jugular vein. The Evans Blue dye stains the tissue it can circulate through, therefore the non-perfused vascular (occluded) tissue remains un-coloured. Each animal was killed with an over-dose of anaesthetic, the heart excised, and excess dye washed off. […] The ischaemic and non-ischaemic tissue was weighed, and the AAR expressed as a percentage of the left ventricle. The tissue from the AAR was cut into small pieces and incubated with p-nitroblue tetrazolium (NBT, 0.5 mg/ml) for 30 min at 37° C. NBT is a reducing agent that reacts with dehydrogenases present in viable (non-infarcted) tissue to produce a dark blue formazan. Infarcted tissue (non-viable) will not have dehydrogenase activity and will therefore fail to stain. The stained tissue was separated from the infarcted tissue, weighed, and the infarct size expressed as a percentage of the AAR.
Sham-operated rats were subjected to surgical procedure without myocardial ischaemia and reperfusion.

[1] = bolus 0.1 mg/kg upon reperfusion, P>0.05 vs Control

Structure (SMILES): C[C@@H]1CC[C@H]2[C@@H](C)C(O)O[C@H]3O[C@@]4(C)CC[C@@H]1[C@]32OO4 (stereo partly drawn) [dihydroartemisinin, (3R,5aS,6R,8aS,9R,12S,12aR)-decahydro-3,6,9-trimethyl-3,12-epoxy-12H-pyrano[4,3-j]-1,2-benzodioxepin-10-ol]
- infarct size (percentage of the AAR) (0.1 mg/kg i.v. bolus upon reperfusion, from 59.8±3.2, P<0.05): 46.5±1.3%
- Infarct size reduction (0.1 mg/kg i.v. upon reperfusion, vs control): 40%
- area at risk (0.1 mg/kg, compared to vehicle treated rats): no significant effect
- fall in mean arterial blood pressure caused by myocardial ischaemia and reperfusion [1]: did not attenuate
- heart rate [1]: did not have a significant effect
